According to patent US5849690A, “Anti-aggregatory peptides” (SmithKline Beecham Corporation, priority 1992, dated 1998):
Positions of bridges follow the written chain, without caps; N, C: chain ends. Non-standard residues stand in square brackets, D forms with d. Residues, ends and D or L forms follow the SMILES beside them.

Molecular target: T1, Platelet rich plasma, PRP (Canis lupus familiaris, UniProt A0A8I3N5G5+A0A8I3PMU9)
T1 sequence (A0A8I3N5G5 1-1047): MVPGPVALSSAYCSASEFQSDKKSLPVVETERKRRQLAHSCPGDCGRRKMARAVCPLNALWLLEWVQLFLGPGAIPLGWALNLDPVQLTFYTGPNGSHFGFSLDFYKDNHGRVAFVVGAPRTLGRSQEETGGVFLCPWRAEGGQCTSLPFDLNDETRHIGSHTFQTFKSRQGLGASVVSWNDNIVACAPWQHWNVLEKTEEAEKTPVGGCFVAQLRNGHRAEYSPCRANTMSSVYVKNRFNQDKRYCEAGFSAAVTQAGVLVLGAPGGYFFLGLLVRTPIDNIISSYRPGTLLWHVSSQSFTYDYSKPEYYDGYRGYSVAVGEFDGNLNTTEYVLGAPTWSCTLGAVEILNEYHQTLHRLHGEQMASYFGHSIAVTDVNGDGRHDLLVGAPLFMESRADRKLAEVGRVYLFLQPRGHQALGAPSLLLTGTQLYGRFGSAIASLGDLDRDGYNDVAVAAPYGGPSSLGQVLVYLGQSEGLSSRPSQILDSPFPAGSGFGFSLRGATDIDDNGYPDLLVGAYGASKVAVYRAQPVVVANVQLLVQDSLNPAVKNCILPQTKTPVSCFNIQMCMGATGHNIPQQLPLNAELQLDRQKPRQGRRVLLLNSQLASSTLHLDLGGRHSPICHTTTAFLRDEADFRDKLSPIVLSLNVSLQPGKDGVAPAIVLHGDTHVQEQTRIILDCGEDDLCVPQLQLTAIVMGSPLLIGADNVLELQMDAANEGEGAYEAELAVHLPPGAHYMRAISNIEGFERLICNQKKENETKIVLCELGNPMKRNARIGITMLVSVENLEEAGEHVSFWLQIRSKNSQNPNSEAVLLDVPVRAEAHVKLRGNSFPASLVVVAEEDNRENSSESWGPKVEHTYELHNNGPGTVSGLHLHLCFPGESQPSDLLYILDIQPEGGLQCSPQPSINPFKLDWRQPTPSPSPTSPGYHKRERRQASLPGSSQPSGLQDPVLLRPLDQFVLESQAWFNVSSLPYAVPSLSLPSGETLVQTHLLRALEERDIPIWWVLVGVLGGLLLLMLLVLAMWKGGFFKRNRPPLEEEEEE
T1 sequence (A0A8I3PMU9 1-919): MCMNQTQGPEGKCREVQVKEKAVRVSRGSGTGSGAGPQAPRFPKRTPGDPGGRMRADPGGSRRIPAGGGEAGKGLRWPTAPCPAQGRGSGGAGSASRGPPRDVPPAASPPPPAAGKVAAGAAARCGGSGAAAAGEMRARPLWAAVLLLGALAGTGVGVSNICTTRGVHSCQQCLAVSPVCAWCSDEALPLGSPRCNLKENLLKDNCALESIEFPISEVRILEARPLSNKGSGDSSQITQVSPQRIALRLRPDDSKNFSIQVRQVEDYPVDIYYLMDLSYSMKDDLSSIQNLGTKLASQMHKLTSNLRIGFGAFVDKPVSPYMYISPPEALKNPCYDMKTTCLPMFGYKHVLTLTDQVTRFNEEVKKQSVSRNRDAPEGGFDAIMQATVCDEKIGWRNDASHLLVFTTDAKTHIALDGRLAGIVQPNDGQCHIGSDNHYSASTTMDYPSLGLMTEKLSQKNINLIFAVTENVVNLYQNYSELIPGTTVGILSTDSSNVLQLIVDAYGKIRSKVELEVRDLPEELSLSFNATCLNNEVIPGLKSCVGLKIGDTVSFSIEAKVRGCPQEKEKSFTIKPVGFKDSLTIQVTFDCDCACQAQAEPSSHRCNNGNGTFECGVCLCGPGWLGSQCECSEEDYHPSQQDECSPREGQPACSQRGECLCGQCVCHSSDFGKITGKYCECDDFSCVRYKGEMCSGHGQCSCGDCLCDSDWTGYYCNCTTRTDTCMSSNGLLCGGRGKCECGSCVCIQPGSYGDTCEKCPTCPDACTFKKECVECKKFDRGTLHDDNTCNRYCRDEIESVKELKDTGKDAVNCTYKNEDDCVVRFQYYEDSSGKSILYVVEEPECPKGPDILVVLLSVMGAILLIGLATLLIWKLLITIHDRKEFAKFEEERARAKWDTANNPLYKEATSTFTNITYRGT
Test: Inhibition of platelet aggregation, PRP/ADP
Assay type: cell-based
Details: dog platelet rich plasma, 2 μM ADP, peptide added 3 min. prior to agonist; read-out: Antiaggregatory Activity IC50, μM PRP/ADP
Method: Blood was collected (citrated to prevent coagulation) from, naive, adult mongrel dogs. Platelet rich plasma, PRP, was prepared by centrifugation at 150×g for 10 min. at room temperature. Washed platelets were prepared by centrifuging PRP at 800×g for 10 min. The cell pellet thus obtained was washed twice in Tyrode's buffer (pH 6.5) without Ca^2+ and resuspended in Tyrode's buffer (pH 7.4) containing 1.8 mM Ca^2+ at […]. Peptides were added 3 min. prior to the agonist in all assays of platelet aggregation. Final agonist concentrations were 0.1 unit/ml thrombin and 2 μM ADP (Sigma). Aggregation was monitored in a Chrono-Log Lumi-Aggregometer. Light transmittance 5 min. after addition of the agonist was used to calculate percent aggregation according to the formula % aggregation=[(90-CR).div.(90-10)]×100, where CR is the chart reading, 90 is the baseline, and 10 is the PRP blank reading. IC50 's were determined by plotting [% inhibition of aggregation] vs. [concentration of peptide]. Peptides were assayed at 200 μM and diluted sequentially by a factor of 2 to establish a suitable dose response curve.

`CC(=O)N[C@H]1CSSC(C)(C)[C@@H](C(N)=O)NC(=O)[C@H](CC(=O)O)NC(=O)CNC(=O)[C@H](CCCNC(=N)N)NC1=O` [Example 10, N^α -Ac-Cyclo(S,S)Cys-Arg-Gly-Asp-Pen-NH2] (HELM PEPTIDE1{[ac].C.R.G.D.[Pen].[am]}$PEPTIDE1,PEPTIDE1,2:R3-6:R3$$$V2.0) was tested, and the IC50 was 4.12 µM.
`CC(=O)N[C@H]1CSSC[C@@H](C(N)=O)NC(=O)[C@H](Cc2ccc(O)cc2)NC(=O)[C@H](CC(=O)O)NC(=O)CNC(=O)[C@H](CCCNC(=N)N)N(C)C1=O` [Example 18, N^α -Ac-Cyclo(S,S)Cys-MeArg-Gly-Asp-Tyr-Cys-NH2] (HELM PEPTIDE1{[ac].C.[meR].G.D.Y.C.[am]}$PEPTIDE1,PEPTIDE1,2:R3-7:R3$$$V2.0) gave an IC50 of 1.49 µM.
“Ac-RRGDF-NH2 [Example 33, N^α -Ac-Arg-Arg-Gly-Asp-Phe-NH2]” showed an IC50 of 113 µM.
For “Gly-MeArg-Gly-Asp-Ser-NH2 (RGDS; N-terminal Gly-Me; C-terminal amide; printed: Arg-Gly-Asp-Ser-) [Example 39]”, the IC50 was 12 µM.
`CCN=C(NCC)NCCC[C@@H]1NC(=O)[C@@H](NC(C)=O)CSSC(C)(C)[C@@H](C(N)=O)NC(=O)[C@H](CC(=O)O)NC(=O)CNC1=O` [Example 24, N^α -Ac-Cyclo(S,S)Cys-(Et2)Arg-Gly-Asp-Pen-NH2] (HELM PEPTIDE1{[ac].C.[CCN=C(NCC)NCCC[C@H](N[*:1])C(=O)[*:2]].G.D.[Pen].[am]}$PEPTIDE1,PEPTIDE1,2:R3-6:R3$$$V2.0) was tested, and the IC50 was 81.7 µM.
Compound `CC(=O)N[C@@H](CCCCNC(=N)N)C(=O)NCC(=O)N[C@@H](CC(=O)O)C(=O)N[C@@H](CO)C(N)=O` [Example 36, Ac-HArg-Gly-Asp-Ser-NH2] (HELM PEPTIDE1{[ac].[N=C(N)NCCCC[C@H](N[*:1])C(=O)[*:2]].G.D.S.[am]}$$$$V2.0) has an IC50 of 68.2 µM.
`CC(=O)N[C@H]1CSSC[C@@H](C(N)=O)NC(=O)[C@H](CO)NC(=O)[C@H](CC(=O)O)NC(=O)CNC(=O)[C@H](CCCNC(=N)N)NC1=O` [Example 3, N^α -Ac-Cyclo(S,S) Cys-Arg-Gly-Asp-Ser-Cys-NH2] (HELM PEPTIDE1{[ac].C.R.G.D.S.C.[am]}$PEPTIDE1,PEPTIDE1,2:R3-7:R3$$$V2.0) showed an IC50 of 32.7 µM.
Compound `CC(=O)N[C@H]1CSSC(C)(C)[C@@H](C(N)=O)NC(=O)[C@H](CO)NC(=O)[C@H](CC(=O)O)NC(=O)CNC(=O)[C@H](CCCNC(=N)N)N(C)C1=O` [Example 5, N^α -Ac-Cyclo(S,S)Cys-MeArg-Gly-Asp-Ser-Pen-NH2] (HELM PEPTIDE1{[ac].C.[meR].G.D.S.[Pen].[am]}$PEPTIDE1,PEPTIDE1,2:R3-7:R3$$$V2.0) has an IC50 of 1.3 µM.
In the case of `CCNC(=O)[C@H](CO)NC(=O)[C@H](CC(=O)O)NC(=O)CNC(=O)[C@H](CCCN=C(N)N)NC(C)=O` [Example 15, N^α -Ac-Arg-Gly-Asp-Ser-NHEt] (HELM PEPTIDE1{[ac].R.G.D.S.[CCN[*:1]]}$$$$V2.0), the IC50 is reported as greater than 200 µM.
`CC(=O)N[C@H]1CSSC(C)(C)[C@@H](C(N)=O)NC(=O)[C@H](CC(=O)O)NC(=O)CNC(=O)[C@@H](CCCNC(=N)N)NC1=O` [Example 17, N^α -Ac-Cyclo(S,S)Cys-D-Arg-Gly-Asp-Pen-NH2] (HELM PEPTIDE1{[ac].C.[dR].G.D.[Pen].[am]}$PEPTIDE1,PEPTIDE1,2:R3-6:R3$$$V2.0) gave an IC50 of 4.1 µM.
In the case of `CC(=O)N[C@H]1CSSC(C)(C)[C@H](C(N)=O)NC(=O)[C@H](CC(=O)O)NC(=O)CNC(=O)[C@H](CCCNC(=N)N)NC1=O` [Example 11, N^α -Ac-Cyclo(S,S)Cys-Arg-Gly-Asp-D-Pen-NH2] (HELM PEPTIDE1{[ac].C.R.G.D.[CC(C)(S[*:3])[C@@H](N[*:1])C(=O)[*:2]].[am]}$PEPTIDE1,PEPTIDE1,2:R3-6:R3$$$V2.0), the IC50 is reported as 20.3 µM.
Work on `CN[C@@H](CCCNC(=N)N)C(=O)NCC(=O)N[C@@H](CC(=O)O)C(=O)N[C@@H](CO)C(N)=O` [Example 37, N^α -MeArg-Gly-Asp-Ser-NH2] (HELM PEPTIDE1{[meR].G.D.S.[am]}$$$$V2.0) yielded an IC50 of 66.3 µM.
`CC(=O)N[C@H]1CSSC(C)(C)[C@@H](C(N)=O)NC(=O)[C@H](CC(=O)O)NC(=O)CNC(=O)[C@H](CCCCN)NC1=O` [Example 12, N^α -Ac-Cyclo(S,S)Cys-Lys-Gly-Asp-Pen-NH2] (HELM PEPTIDE1{[ac].C.K.G.D.[Pen].[am]}$PEPTIDE1,PEPTIDE1,2:R3-6:R3$$$V2.0) was tested, and the IC50 was 55.3 µM.
`CC(=O)N[C@@H](CCCN=C(N)N)C(=O)NCC(=O)N[C@@H](CC(=O)O)C(=O)N[C@H](C(N)=O)C(C)C` [Example 31, N^α -Ac-Arg-Gly-Asp-Val-NH2] (Ac-RGDV-NH2) showed an IC50 of 55.5 µM.
`CC(=O)N[C@@H](CCCN=C(N)N)C(=O)NCC(=O)N[C@@H](CC(=O)O)C(=O)NCCc1ccccc1` [Example 34, N^α -Ac-Arg-Gly-Asp-NH-CH -CH2 -C6 H5] was tested, and the IC50 was 75.9 µM.
`CCNC(=O)[C@H]1NC(=O)[C@H](CC(=O)O)NC(=O)CNC(=O)[C@H](CCCNC(=N)N)NC(=O)[C@@H](NC(C)=O)CSSC1(C)C` [Example 16, N^α -Ac-Cyclo(S,S)Cys-Arg-Gly-Asp-Pen-NHEt] (HELM PEPTIDE1{[ac].C.R.G.D.[Pen].[CCN[*:1]]}$PEPTIDE1,PEPTIDE1,2:R3-6:R3$$$V2.0) was tested, and the IC50 was 9.5 µM.
`CC(=O)N[C@H]1CSSC(C)(C)[C@@H](C(N)=O)NC(=O)[C@H](CC(=O)O)NC(=O)CNC(=O)[C@H](CCCNC(=N)N)N(C)C1=O` [Example 14, N^α -Ac-Cyclo(S,S)Cys-MeArg-Gly-Asp-Pen-NH2] (HELM PEPTIDE1{[ac].C.[meR].G.D.[Pen].[am]}$PEPTIDE1,PEPTIDE1,2:R3-6:R3$$$V2.0) gave an IC50 of 0.26 µM.
In the case of “N^α -Ac-Cyclo(S,S)Cys-MeArg-Gly-Asp-Cys-NH2 (Ac-C[MeArg]GDC-NH2; disulfide N-5) [Example 8]”, the IC50 is reported as 0.91 µM.
Work on `CC(=O)N[C@H]1CSSC(C)(C)[C@@H](C(N)=O)NC(=O)[C@H](CC(=O)O)NC(=O)CNC(=O)[C@H](CCCCNC(=N)N)NC1=O` [Example 13, N^α -Ac-Cyclo(S,S)Cys-HArg-Gly-Asp-Pen-NH2] (HELM PEPTIDE1{[ac].C.[N=C(N)NCCCC[C@H](N[*:1])C(=O)[*:2]].G.D.[Pen].[am]}$PEPTIDE1,PEPTIDE1,2:R3-6:R3$$$V2.0) yielded an IC50 of 3.85 µM.
`CN(C=O)[C@@H](CCCNC(=N)N)C(=O)NCC(=O)N[C@@H](CC(=O)O)C(=O)N[C@@H](CO)C(N)=O` [Example 38, N^α -Formyl-MeArg-Gly-Asp-Ser-NH2] (HELM PEPTIDE1{[O=C[*:2]].[meR].G.D.S.[am]}$$$$V2.0) gave an IC50 of 6.9 µM.
